Reference: patent US11034692B1 (Genentech, Inc., priority 2017, dated 2021)
Where two headings read alike, the source gives them in different places.

Legend:
[1] = target: HPK1-FL (HPK full length, T165E S171E) (Homo sapiens (Human), UniProt Q92918, S171E/T165E); assay: HPK1-FL HTRF Enzymatic Assay ("HTRF"); assay type: biochemical
Protocol: HPK1-FL HTRF Enzymatic Assay (“HTRF”)
HPK-FL enzyme phosphorylates Biotin-SLP-76 substrate in the presence of ATP at 1 mM and varying concentrations of test compound. Product is detected by FRET using Eu-anti-pSLP76 Ab and SA-XL665. See www.cisbio.com/HTRF for additional HTRF technology information.
Instrumentation: • Echo555 compound dispenser • Agilent Bravo • Perkin Elmer Envision
Materials: • Assay plate: White ProxiPlate 384 F (PerkinElmer cat #6008289) • Kinase: HPK full length double mutant • Substrate: Biotin-SLP76 • ATP: 100 mM ATP • BSG: 2% BSG • DMSO: DMSO (Sigma cat #34869-100ML) • Reaction Buffer: H2O/50 mM HEPES, pH 7.5/10 mM MgCl2/2 mM TCEP/0.01% Brij-35/0.01% BSG • Detection mix: Eu-anti-pSLP76/SA-XL665 (Cisbio, #610SAXAC)
Assay Procedure Ki Determination:
To a 384 well Proxiplate with 80 nL compound or DMSO spotted on was added 4 μl/well kinase mix. The mixture was preincubated for 30 minutes and then 4 μl/well substrate mix was added. The solution was incubated for 60 min and then 4 μl/well detection mix was added. The solution was incubated for another 60 min. The plates were then loaded onto a Perkin Elmer Envision and the TR-FRET signal was measured at 615 and 665 nm. A ratio of […] was used to calculate the % activity at each concentration of compound.

[2] = tested on: primary human pan T cells; assay: Human T-Cell IL2 Induction Assay; assay type: cell-based; settings: anti-CD3/anti-CD28 stimulated primary human pan T cells
Protocol: Human T-Cell IL2 Induction Assay
Anti-CD3 and anti-CD28 activates TCR signaling in primary human pan T cells leading to IL-2 promoter induction. Secreted IL-2 in cell culture supernatant is detected by electrochemiluminescence using a capture antibody against IL-2 and an anti-IL-2 antibody labeled with SULFO-tag.
See www.mesoscale.com for additional electrochemiluminescence technology information.
Incubate primary human pan T cells with varying concentrations of test compounds for 30 minutes in a humidified incubator at 37° C. and 5% CO2. Transfer cells to a plate pre-coated with a fixed concentration of anti-human CD3 (determined separately for each donor lot) and add soluble anti-human CD28 (final concentration=1 μg/ml). Stimulate cells in a humidified incubator at 37° C. and 5% CO2 for 4 hours. Transfer 25 μl of supernatant to a MSD single spot plate pre-coated with an anti-human IL-2 antibody. Incubate MSD plate overnight at 4° C. with gentle shaking. Wash MSD plate 4× with wash buffer. Add SULFO-tagged detection antibody at a 1:50 dilution and incubate at room temperature shaking for 2 hours. Wash MSD plate 4× with wash buffer and add 150 μl 2×MSD read buffer. Read on an MSD instrument. Normalize data to stimulated/untreated controls to calculate % activity at each concentration of compound.
Materials: • Frozen Primary Human Pan-T Cells (StemCell Technologies #70024) • anti-human CD3 (OKT3 clone) (eBioscience #16-0037-81) • anti-human CD28 (CD28.2 clone) (BD #555725) • 96-well Human IL-2 tissue culture kit (MSD #K151AHB-4)
Instrumentation: • Biomek FX for liquid handling (Beckman Coulter) • MSD SECTOR S 600 (Meso Scale Discovery)
Exemplary compounds of Formula I or Ia were tested in the human T-cell IL-2 induction assays. The % increase measured for IL-2 in cells treated by the test compounds relative to untreated cells are provided in Table B2 for certain compounds (structures as shown with the HPK1 Ki values).

HPK1 [3] = target: HPK1 (Homo sapiens, UniProt Q92918); assay: HPK1 Lantha Binding Assay ("Lanth")
HPK1 (Homo sapiens, UniProt Q92918), sequence (Q92918 whole entry, looked up): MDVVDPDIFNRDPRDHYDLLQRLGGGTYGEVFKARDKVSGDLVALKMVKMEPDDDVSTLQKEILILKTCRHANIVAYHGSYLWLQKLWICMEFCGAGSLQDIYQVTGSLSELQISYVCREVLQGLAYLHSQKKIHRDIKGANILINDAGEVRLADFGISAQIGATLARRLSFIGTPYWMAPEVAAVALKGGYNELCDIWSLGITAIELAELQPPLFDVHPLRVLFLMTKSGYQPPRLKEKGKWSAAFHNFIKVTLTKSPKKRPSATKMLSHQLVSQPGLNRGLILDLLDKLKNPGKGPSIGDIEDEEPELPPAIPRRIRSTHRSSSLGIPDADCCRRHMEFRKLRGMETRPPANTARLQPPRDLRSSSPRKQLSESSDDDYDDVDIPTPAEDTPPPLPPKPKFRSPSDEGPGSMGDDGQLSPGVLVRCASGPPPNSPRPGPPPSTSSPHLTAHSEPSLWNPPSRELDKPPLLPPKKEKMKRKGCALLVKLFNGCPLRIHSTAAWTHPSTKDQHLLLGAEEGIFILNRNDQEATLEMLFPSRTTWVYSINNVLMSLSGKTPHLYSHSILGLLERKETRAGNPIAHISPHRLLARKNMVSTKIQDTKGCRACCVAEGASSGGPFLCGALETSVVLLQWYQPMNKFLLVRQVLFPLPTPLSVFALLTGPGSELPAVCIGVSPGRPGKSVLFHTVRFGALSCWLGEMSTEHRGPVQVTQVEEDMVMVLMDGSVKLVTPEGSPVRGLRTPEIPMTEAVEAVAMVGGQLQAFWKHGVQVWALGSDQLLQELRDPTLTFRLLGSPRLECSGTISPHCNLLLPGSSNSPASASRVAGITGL
Outline: (§1)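 TR-FRET tracer displacement with 2 nM GST-tagged kinase, 2 nM Eu-anti-GST antibody and 15 nM Tracer222 at 23 C. Enzyme–antibody preincubated 1 h with compound, then tracer added for 1 h; 340 nm excitation, 615/665 nm emission. Ki from Morrison fit over an 11-point 5-fold dilution.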

HPK1 [4] = assay: HPK1 Lantha Binding Assay ("Lanth")
Outline: as §1

[5] = ATP 1 mM, Table B1-2, read-out: HPK1 Ki, H = HTRF
[6] = Table B2, read-out: HPK1 Ki (nM), L = Lanth
[7] = Table B1-1, read-out: HPK1 Ki (μM) (Lanth)
[8] = Table B1-2, read-out: HPK1 Ki, L = Lanth

HPK1-FL (HPK full length, T165E S171E), sequence (Q92918 whole entry T165E/S171E): as the sequence (Q92918 whole entry, looked up) above, with T165E, S171E counted along it

Structure (SMILES): Cc1c(N)cncc1-c1cc2cc(Nc3cc4n(n3)CC(=O)N(C)CC43CC3)ncc2c(N)n1 [Compound 414, 2′-((8-amino-6-(5-amino-4-methylpyridin-3-yl)-2,7-naphthyridin-3-yl)amino)-6′-methyl-5′,6′-dihydrospiro[cyclopropane-1,4′-pyrazolo[1,5-d][1,4]diazepin]-7′(8′H)-one]
- Ki [1, 5]: 0.013 nM

Structure (SMILES): Cc1cc(C(N)=O)cc(F)c1-c1cc2cc(NC(=O)[C@@H]3C[C@H]3c3cnn(C)c3)ncc2c(N)n1 (single isomer, unassigned) [Compound 352]
- Ki [1, 5]: 5 nM

Structure (SMILES): Cc1n[nH]c(C)c1-c1cc2cc(NC(=O)[C@@H]3C[C@@H]3F)ncc2c(N)n1 (racemic) [Compound 103, (±)-cis-N-(8-amino-6-{3,5-dimethyl-1H-pyrazol-4-yl)-2,7-naphthyridin-3-yl)-2-fluorocyclopropane-1-carboxamide]
- % IL-2 increase relative to untreated cells ([2]; assayed concentration 0.31 μM): 94%
- Ki (HPK1 [3]; [6]): 3.8 nM

Structure (SMILES): Cc1ccncc1-c1cc2cc(Nc3cnn([C@H](C)C#N)c3)ncc2c(N)n1 (single isomer, unassigned) [Compound 273]
- % IL-2 increase relative to untreated cells ([2]; assayed concentration 0.93 μM): 830%
- Ki (HPK1 [3]; [6]): 0.06 nM
- Ki (HPK1 [4]; [7]): 0.0675 nM

Structure (SMILES): CNC(=O)Nc1cc2cc(-c3cnccc3C)nc(N)c2cn1 [Compound 130, 1-[8-amino-6-(4-methyl-3-pyridyl)-2,7-naphthyridin-3-yl]-3-methyl-urea]
- % IL-2 increase relative to untreated cells ([2]; assayed concentration 0.93 μM): 274%
- Ki (HPK1 [4]; [7]): 2.6 nM
- Ki (HPK1 [4]; [6]): 2.6 nM

Structure (SMILES): CC(Oc1ccccn1)c1cc2cc(Nc3cc4n(n3)CC(=O)N(C(C)C)CC4)ncc2c(N)n1 (racemic) [Compound 419, (+/−)-2-((8-amino-6-(1-(pyridin-2-yloxy)ethyl)-2,7-naphthyridin-3-yl)amino)-6-isopropyl-5,6-dihydro-4H-pyrazolo[1,5-d][1,4]diazepin-7(8H)-one]
- Ki [1, 5]: 511 nM

Structure (SMILES): Nc1nc(-c2ccc[nH]c2=O)cc2cc(NC(=O)C3CC3)ncc12 [Compound 42, N-(8-amino-6-(2-oxo-1,2-dihydropyridin-3-yl)-2,7-naphthyridin-3-yl) cyclopropanecarboxamide]
- Ki (HPK1 [3]; [7]): 5800 nM
- Ki (HPK1 [4]; [7]): 40.5 nM

Structure (SMILES): Cc1ccncc1-c1cc2cc(Nc3cc4n(n3)CC(=O)N(C)CC4)ncc2c(N)n1 [Compound 256, 2-[[8-amino-6-(4-methylpyridin-3-yl)-2,7-naphthyridin-3-yl]amino]-6-methyl-4H,5H,6H,7H,8H-pyrazolo[1,5-d][1,4]diazepin-7-one]
- Ki ([1]; Table B2, read-out: HPK1 Ki (nM), H = HTRF): 0.59 nM
- % IL-2 increase relative to untreated cells ([2]; assayed concentration 0.31 μM): 699%
- Ki (HPK1 [4]; [7]): 0.02 nM

Structure (SMILES): Cc1c(N)cncc1-c1cc2cc(Nc3cc4n(n3)CC(=O)N(C)CC4)ncc2c(N)n1 [Compound 415, 2-((8-amino-6-(5-amino-4-methylpyridin-3-yl)-2,7-naphthyridin-3-yl)amino)-6-methyl-5,6-dihydro-4H-pyrazolo[1,5-d][1,4]diazepin-7(8H)-one]
- Ki [1, 5]: 0.21 nM

Structure (SMILES): Cc1ccncc1-c1cc2cc(NC(=O)[C@H]3[C@@H](C)[C@@H]3c3cnn(C)c3)ncc2c(N)n1 (single isomer, unassigned) [Compound 328]
- % IL-2 increase relative to untreated cells ([2]; assayed concentration 0.93 μM): 936%
- Ki (HPK1 [4]; [7]): 0.114 nM
- Ki (HPK1 [4]; [6]): 0.11 nM

Structure (SMILES): Cc1ccncc1-c1cc2cc(NC(=O)C3CC3)ncc2c(N)n1 [Compound 24, N-(8-amino-6-(4-methylpyridin-3-yl)-2,7-naphthyridin-3-yl)cyclopropanecarboxamide]
- % IL-2 increase relative to untreated cells ([2]; assayed concentration 0.93 μM): 513%
- Ki (HPK1 [4]; [7]): 0.68 nM
- Ki (HPK1 [4]; [6]): 0.68 nM

Structure (SMILES): Cc1ccncc1-c1cc2cc(Nc3ccc(CC#N)cn3)ncc2c(N)n1 [Compound 389, 2-[6-[[8-amino-6-(4-methyl-3-pyridyl)-2,7-naphthyridin-3-yl]amino]-3-pyridyl]acetonitrile]
- % IL-2 increase relative to untreated cells ([2]; assayed concentration 0.10 μM): 265%
- Ki (HPK1 [4]; [8]): 0.033 nM
- Ki (HPK1 [4]; [6]): 0.033 nM

Structure (SMILES): Cc1cc(-c2ncco2)cc(F)c1-c1cc2cc(NC(=O)[C@H]3[C@@H](C)[C@@H]3c3cnn(C)c3)ncc2c(N)n1 (single isomer, unassigned) [Compound 350]
- Ki [1, 5]: 39.7 nM

Structure (SMILES): Cc1cc(C(N)=O)cc(F)c1-c1cc2cc(NC(=O)[C@H]3C[C@@H]3c3cnn(C)c3)ncc2c(N)n1 (single isomer, unassigned) [Compound 351]
- Ki [1, 5]: 0.33 nM

Structure (SMILES): Cc1cc(-c2ncco2)ccc1-c1cc2cc(NC(=O)[C@H]3C[C@@H]3c3cnn(C)c3)ncc2c(N)n1 (single isomer, unassigned) [Compound 379]
- % IL-2 increase relative to untreated cells ([2]; assayed concentration 2.8 μM): 547%

Structure (SMILES): CC(C)N1CCc2cc(Nc3cc4cc(C(C)n5ccccc5=O)nc(N)c4cn3)nn2CC1=O (racemic) [Compound 420, (+/−)-2-((8-amino-6-(1-(2-oxopyridin-1(2H)-yl)ethyl)-2,7-naphthyridin-3-yl)amino)-6-isopropyl-5,6-dihydro-4H-pyrazolo[1,5-d][1,4]diazepin-7(8H)-one]
- Ki [1, 5]: 1640 nM

Structure (SMILES): Cc1cccc(F)c1-c1cc2cc(NC(=O)[C@@H]3[C@H](C)[C@H]3c3cnn(C)c3)ncc2c(N)n1 (single isomer, unassigned) [Compound 356]
- % IL-2 increase relative to untreated cells ([2]; assayed concentration 2.8 μM): 732%
- Ki (HPK1 [4]; [8]): 0.3 nM
- Ki (HPK1 [4]; [6]): 0.3 nM

Structure (SMILES): Cc1cc(-c2ncco2)cc(F)c1-c1cc2cc(NC(=O)[C@H]3[C@H](C)[C@@H]3c3cnn(C)c3)ncc2c(N)n1 (single isomer, unassigned) [Compound 349, N-(8-amino-6-(2-fluoro-6-methyl-4-(oxazol-2-yl)phenyl)-2,7-naphthyridin-3-yl)-2-methyl-3-(1-methyl-1H-pyrazol-4-yl)cyclopropane-1-carboxamide]
- Ki [1, 5]: 6.2 nM

Structure (SMILES): Cc1cc2[nH]c(=O)oc2cc1-c1cc2cc(NC(=O)C3C[C@H]3C#N)ncc2c(N)n1 (mixture of isomers) [Compound 135, (±)-((trans-)-N-(8-amino-6-(5-methyl-2-oxo-2,3-dihydrobenzo[d]oxazol-6-yl)-2,7-naphthyridin-3-yl)-2-cyanocyclopropanecarboxamide]
- Ki (HPK1 [3]; [7]): 0.25 nM

Structure (SMILES): Cc1cccc(Cl)c1-c1cc2cc(NC(=O)[C@H]3C[C@@H]3CC#N)ncc2c(N)n1 (single isomer, unassigned) [Compound 362]
- Ki (HPK1 [3]; [8]): 0.22 nM
